In PubChem BioAssay (NCI):
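48-hour exposure; five concentrations; linearly interpolated endpoints. Here, GI50 denotes the concentration required for 50% inhibition of growth. Definition used: TGI = concentration required for complete inhibition of growth.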

Columns and labels:
Test in all cases: NCI anticancer screen, dose series, 48 h
LOX IMVI melanoma = tested on: LOX IMVI melanoma
MDA-MB-435 = tested on: MDA-MB-435
TK-10 renal = tested on: TK-10 renal
U251 CNS = tested on: U251 CNS
BT-549 breast = tested on: BT-549 breast
UACC-62 melanoma = tested on: UACC-62 melanoma
NCI-H460 lung = tested on: NCI-H460 lung
COLO 205 colon = tested on: COLO 205 colon
MCF7 breast = tested on: MCF7 breast
SF-268 CNS = tested on: SF-268 CNS

| SMILES | TGI (LOX IMVI melanoma) [µM] | TGI (MDA-MB-435) [µM] | TGI (TK-10 renal) [µM] | TGI (U251 CNS) [µM] | TGI (BT-549 breast) [µM] | TGI (UACC-62 melanoma) [µM] | TGI (NCI-H460 lung) [µM] | TGI (COLO 205 colon) [µM] | TGI (MCF7 breast) [µM] | TGI (SF-268 CNS) [µM] | GI50 (LOX IMVI melanoma) [µM] | GI50 (MDA-MB-435) [µM] | GI50 (TK-10 renal) [µM] | GI50 (U251 CNS) [µM] | GI50 (BT-549 breast) [µM] | GI50 (UACC-62 melanoma) [µM] | GI50 (NCI-H460 lung) [µM] | GI50 (COLO 205 colon) [µM] | GI50 (MCF7 breast) [µM] | GI50 (SF-268 CNS) [µM] |
| --- | --- | --- | --- | --- | --- | --- | --- | --- | --- | --- | --- | --- | --- | --- | --- | --- | --- | --- | --- | --- |
| Nc1nc(-c2cccnc2)cc(-c2cc(-c3cccnc3)nc(N)n2)n1 | > 100 | > 100 | > 100 | > 100 | > 100 | > 100 | > 100 | > 100 | > 100 | > 100 |  |  |  |  |  |  |  |  |  |  |
| CCOc1ccc(-c2nc3ccc(-c4nc5ccc(N6CCN(C)CC6)cc5[nH]4)cc3[nH]2)cc1 | 0.485 | 2.8 | 2.24 | 1.05 | 2.46 | 1.96 | 1.67 | 1.26 | 0.38 | 1.67 | 0.188 | 0.69 | 1.05 | 0.155 | 1.16 | 0.511 | 0.489 | 0.117 | 0.0328 | 0.361 |
| Nc1nc(Sc2ccc([N+](=O)[O-])c3nonc23)c2ncn(C3OC(CO)C(O)C3O)c2n1 (stereo not given) | 2.76 | > 57.1 | > 37.2 | > 85.1 | 18.6 | 3.59 | 15.5 | 14.4 | 13.6 | 21.3 | 0.221 | 1.67 | 2.42 | 0.685 | 1.6 | 0.478 | 0.311 | 2.59 | 0.373 | 0.938 |
| COc1cccc(S(=O)(=O)NC2=NCCN2C(=S)SN2CCn3c2nsc3=S)c1 | 26.5 | > 100 | 81.5 | 61.8 | 99.8 | > 100 | > 100 | 39.6 | > 100 | > 100 | 13.2 | 37.3 | 34.4 | 22 | 29.9 | 28.6 | 58.3 | 17.8 | 39.4 | 59.3 |
| NC(=O)c1cn(C2CC(O)C(CO)O2)c2ncnc(N)c12 (stereo not given) | 4.43 | > 100 | 19.5 | > 100 | 2.87 | 23 | > 100 | 24 | 13.9 | > 76.9 | 1.2 | 2.42 | 1.96 | 17.7 | 0.203 | 2.39 | 7.69 | 5.01 | 0.376 | 6.17 |
| O=S(O)O.O=S(O)O.[Co].[NH2-].[NH2-].[NH2-].[NH2-] | > 100 | > 100 | > 100 | > 100 | > 100 | > 100 | > 100 | > 100 | > 100 | > 100 | > 100 | > 100 | > 100 | > 100 | > 100 | > 100 | > 100 | > 100 | > 100 | > 100 |
| CCOC(=O)c1c(NN2CCN(CC(F)(F)F)CC2)oc(/C=C2\C=Nc3ncccc32)c1O | 11.8 | 16.8 | 24 | 28 | 5.68 | 15.1 | 20.2 | 11.1 | 30.5 | 16.1 | 2.28 | 3.36 | 3.37 | 4.01 | 1.59 | 4.83 | 3.49 | 0.76 | 6.37 | 3.04 |
| Cn1cnc([N+](=O)[O-])c1S(=O)(=O)Oc1ccc(Cl)cc1 | 3.57 | 36.2 | > 100 | 55.8 | 28.8 | 29.1 | > 100 | 2.09 | 96.1 | 38.1 | 1.73 | 16.2 | 27.8 | 16.6 | 13.3 | 13.2 | 32.3 | 0.546 | 22.9 | 15.7 |
| O=C(Nc1ccc(Cl)c(C(F)(F)F)c1)Nc1ccc(-c2cccnc2)cc1N1CCC(CO)CC1 | 3.66 | 4.53 | 4.76 | 7.1 | 6.22 | 6.75 | 6.24 | 3.18 | 6.96 | 8.21 | 1.92 | 1.91 | 1.85 | 2.41 | 2.13 | 2.18 | 2.32 | 1.65 | 2.2 | 2.39 |
